From publication PMC10192880 (Frontiers in Pharmacology, 2023)

Assays:
clinical = assay: clinical
Description: This was an open-label, three-period, controlled before-and-after trial (China Clinical Trial Registry: ChiCTR1900024344). It was conducted at the Second Affiliated Hospital within Tianjin University of Traditional Chinese Medicine (Tianjin, China). The protocol was approved by the ethics committees of the Second Affiliated Hospital within Tianjin University of Traditional Chinese Medicine. Written informed consent was provided by all participants. This trial was in accordance with the Declaration of Helsinki 1964 and its later amendments.
Men and women aged 18–45 years participated in this trial if they were healthy and the EPHX1 A/A genotype was confirmed. The key exclusion criteria were coagulation disorders or allergies to drugs.
Our trial comprised three periods. […] After 3 days, individuals entered the second period, in which CDDP (10 pills, p. o., t.d.s.) was administered for 5 days.
Moreover, blood samples were taken from participants once a day before CDDP administration for assays of coagulation indices to ensure safety.

[1] = test system: transfected EPHX1 A/G and BL cells; assay: MTT cell viability of transfected cells; format: cell-based, human; settings: 0.0625–8.00 mg/mL for 24 h or 72 h, dose-dependent
Description: CDDP was manufactured by Tianjin Tasly Group (Tianjin, China). […] Transfected cells were plated evenly on a 96-well cell-culture plate with ∼8,000 cells/well. They were cultured for 24 h at 37°C. […] Subsequently, to each well was added 10 µL of 3-(4,5-Dimethylthiazol-2-yl)-2,5-diphenyltetrazolium bromide solution (5 mg/mL), and cells were allowed to incubate for an additional 4 h in an atmosphere of 5% CO2 at 37°C. Then, the cells were centrifugated and the […]. Finally, the blue-purple crystals were dissolved using dimethyl sulfoxide (150 µL) with agitation for 10 min. The absorbance of each well was determined at 490 nm. Cell viability (Supplementary Figure S1) was calculated according to the formula: Cell viability=absorbanceexperiment/absorbancecontrol×100%
Thus, the incubation time selected at 24 h.

[2] = by dose adjustment (residual drug converted into a dose), third period: warfarin + CDDP
[3] = by dose adjustment, first period: warfarin 3 mg p.o. alone
[4] = first period: warfarin 3 mg p.o. alone, HVs EPHX1 A/A
[5] = third period: warfarin 3 mg p.o. + CDDP 10 pills p.o., HVs EPHX1 A/A

Row | SMILES | AUC0-144 (clinical; [2]) [ng/h/mL] | Cmax (clinical; [2]) [ng/mL] | Tmax (clinical; [2]) [h] | Vd (clinical; [2]) [mL] | AUC0-144 (clinical; [3]) [ng/h/mL] | CL (clinical; [3]) [mL/h] | Cmax (clinical; [3]) [ng/mL] | Tmax (clinical; [3]) [h] | Vd (clinical; [3]) [mL] | AUC0-144 (clinical; [4]) [ng/h/mL] | CL (clinical; [4]) [mL/h] | Cmax (clinical; [4]) [ng/mL] | Tmax (clinical; [4]) [h] | Vd (clinical; [4]) [mL] | AUC0-144 (clinical; [5]) [ng/h/mL] | CL (clinical; [5]) [mL/h] | Cmax (clinical; [5]) [ng/mL] | Tmax (clinical; [5]) [h] | Vd (clinical; [5]) [mL] | other results
1 | CC(=O)C[C@H](c1ccccc1)c1c(O)c2ccccc2oc1=O [R-Warfarin] | 14594 ± 3088 | 273.9 ± 58.10 | 0.7143 ± 0.3934 | 18445 ± 2408 | 11630 ± 2938 | 210.3 ± 57.13 | 204.6 ± 71.38 | 1.857 ± 1.435 | 20505 ± 4506 | 11630 ± 2938 | 210.3 ± 57.13 | 204.6 ± 71.38 | 1.857 ± 1.435 | 20505 ± 4506 | 14594 ± 3088 | 164.8 ± 51.16 | 273.9 ± 58.10 | 0.7143 ± 0.3934 | 16283 ± 2164 | –
2 | CC(=O)CC(c1ccccc1)c1c(O)c2ccccc2oc1=O (centres unmarked) [Warfarin] | – | – | – | – | – | – | – | – | – | – | – | – | – | – | – | – | – | – | – | cells' viability [1]: significantly decreased; CL (clinical; both, human, in vivo, po, 3 mg): 144.9 ± 36.87 mL/h; Cmax (clinical; both, human, in vivo, po, 3 mg): 403 ± 148 ng/mL; Tmax (clinical; both, human, in vivo, po, 3 mg): 1.86 ± 1.44 h; Vd (clinical; both, human, in vivo, po, 3 mg): 13393 ± 3036 mL
3 | CC(=O)C[C@@H](c1ccccc1)c1c(O)c2ccccc2oc1=O [S-Warfarin] | 7223 ± 1727 | 261.9 ± 54.50 | 0.714 ± 0.393 | 32429 ± 3754 | 5812 ± 1632 | 466.0 ± 109.7 | 199.0 ± 76.90 | 1.500 ± 1.414 | 37594 ± 9569 | 5812 ± 1632 | 466.0 ± 109.7 | 199.0 ± 76.90 | 1.500 ± 1.414 | 37594 ± 9569 | 7223 ± 1727 | 374.1 ± 82.69 | 261.9 ± 54.50 | 0.714 ± 0.393 | 28630 ± 3437 | CL (clinical; [2]): 423.5 ± 91.18 mL/h
